The results in this text go back to patent US20260297042A1, “BIARYLAMIDE DERIVATIVES AND THEIR USE AS PKMYT1 INHIBITORS” (CANCER RESEARCH TECHNOLOGY LIMITED, priority 2023, published 2026).

pIC50: −log10 of the molar value.

The target in one test is T1, WEE1 (Homo sapiens, UniProt P30291).
T1 construct: purchased Thermo Fisher PR7373A
In words: Selectivity versus WEE1 assay (ADP-Glo enzymatic assay). Type of test: biochemical. As to conditions: for pIC50: ADP-Glo; for PKMYT1 vs. WEE1 selectivity: fold difference in selectivity for PKMYT1 over WEE1. In short, it runs like this:
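15 nM WEE1, 30 µM ATP, 50 mM HEPES pH 7.5, 10 mM MgCl2, 1 mM EGTA, 0.01% Brij-35, 1% DMSO; 60 min, 26° C; ADP-Glo luminescence; IC50 from curve fit, replicates within 3-fold, r2 >0.9.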

Another test addresses T2, Human PKMYT1 (Homo sapiens, UniProt Q99640).
T2 construct: Human PKMYT1 75-362 was cloned as a TEV cleavable 6xHis fusion; 6xHis (TEV cleavable) (cleaved yes); made in house; host or cells: bacterial cells
T2 sequence (Q99640 75-362): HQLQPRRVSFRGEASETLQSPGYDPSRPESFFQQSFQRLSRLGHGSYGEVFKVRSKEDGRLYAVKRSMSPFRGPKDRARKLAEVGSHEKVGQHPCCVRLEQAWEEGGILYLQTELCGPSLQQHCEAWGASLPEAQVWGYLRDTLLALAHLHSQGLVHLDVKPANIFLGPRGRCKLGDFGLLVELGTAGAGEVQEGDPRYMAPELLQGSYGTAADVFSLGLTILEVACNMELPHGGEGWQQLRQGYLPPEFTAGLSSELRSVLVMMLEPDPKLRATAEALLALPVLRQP
In words: PKMYT1 biochemical ADP-Glo enzymatic assay. As to conditions: ADP-Glo. In short, it runs like this:
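PKMYT1 75-362 (His-cleaved, bacterial) 15 nM; ATP 500 µM; HEPES pH 7.5, MgCl2, EGTA, Brij-35, 1% DMSO; 60 min, 26 °C; ADP-Glo Max luminescence; 10-pt 3-fold titration → IC50; replicates within 3-fold, r2 >0.9.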
Background: ADP-Glo first removes unused ATP, then detects ADP through luciferase.

The mark [1] stands for this setting: 15 nM WEE1, 60 minutes at 26° C., banded.
[2] abbreviates: banded, ">N" = at least in this band but could be higher.
Where [3] appears, read: 15 nM PKMYT1 kinase domain, 500 µM ATP, 60 minutes at 26° C., banded.
The mark [4] stands for this setting: PKMYT1 kinase domain 15 nM, banded values.

T1 sequence (P30291 whole entry): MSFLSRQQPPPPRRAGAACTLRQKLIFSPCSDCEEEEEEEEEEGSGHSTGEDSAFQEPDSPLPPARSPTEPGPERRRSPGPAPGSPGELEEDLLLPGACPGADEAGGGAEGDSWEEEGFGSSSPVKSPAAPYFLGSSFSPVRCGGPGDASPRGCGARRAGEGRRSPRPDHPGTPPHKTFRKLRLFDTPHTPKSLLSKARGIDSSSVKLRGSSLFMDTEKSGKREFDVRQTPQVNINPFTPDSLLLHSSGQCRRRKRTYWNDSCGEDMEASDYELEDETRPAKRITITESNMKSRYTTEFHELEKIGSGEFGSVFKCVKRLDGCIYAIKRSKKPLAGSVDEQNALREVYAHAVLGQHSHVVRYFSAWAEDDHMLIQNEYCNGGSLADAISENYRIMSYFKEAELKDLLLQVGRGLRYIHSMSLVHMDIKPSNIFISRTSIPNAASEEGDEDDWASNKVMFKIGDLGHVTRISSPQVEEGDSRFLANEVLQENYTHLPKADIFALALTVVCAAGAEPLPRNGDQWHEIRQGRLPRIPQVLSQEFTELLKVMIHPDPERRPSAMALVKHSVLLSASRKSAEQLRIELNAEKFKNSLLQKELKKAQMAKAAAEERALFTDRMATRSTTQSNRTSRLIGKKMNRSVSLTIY

Take `Cc1ccc(O)c(C)c1NC(=O)c1cnc(Nc2nn(C)cc2C(N)=O)s1` [BAA-254, 2-((4-carbamoyl-1-methyl-1H-pyrazol-3-yl)amino)-N-(3-hydroxy-2,6-dimethylphenyl)thiazole-5-carboxamide]: the pIC50 was under 4.96 against WEE1 (setting [1]) and 6.00 to 7.30 against Human PKMYT1 (setting [3]). On WEE1 (setting [2]), the “PKMYT1 vs. WEE1 selectivity” value was “Y (1000-5000 fold)”.
The matching figures for `CCN(CC)C(=O)N1CC[C@@H](n2ccc(Nc3ncc(C(=O)Nc4c(C)ccc(O)c4C)s3)n2)C1` [BAA-112, 2-[[1-[(3R)-1-(Diethylcarbamoyl)pyrrolidin-3-yl]pyrazol-3-yl]amino]-N-(3-hydroxy-2,6-dimethyl-phenyl)thiazole-5-carboxamide]: under 4.96, 6.00 to 7.30 and “>Y (1000-5000 fold)”.
The matching figures for `Cc1ccc(O)c(C)c1NC(=O)c1cnc(Nc2ccn(CC(=O)NC3CCN(C)CC3)n2)s1` [BAA-151]: under 4.96, 6.00 to 7.30 and “X (100-<1000 fold)”.
Regarding `Cc1nc2cc(Nc3ncc(C(=O)Nc4c(C)ccc(O)c4C)s3)ccc2o1` [BAA-445, N-(3-hydroxy-2,6-dimethylphenyl)-2-((2-methylbenzo[d]oxazol-5-yl)amino)thiazole-5-carboxamide], the pIC50 at WEE1 (WEE1 15 nM, banded values) is 4.96 to 6.00; against Human PKMYT1 (setting [4]), 6.00 to 7.30. The “PKMYT1 vs. WEE1 selectivity” value at WEE1 (banded) is given as “X (100-<1000 fold)”.
For `Cc1cnc(Nc2ncc(C(=O)Nc3c(C)ccc(O)c3C)s2)s1` [BAA-262, N-(3-hydroxy-2,6-dimethylphenyl)-2-((5-methylthiazol-2-yl)amino)thiazole-5-carboxamide], the negative logarithm of the IC50 (pIC50) at WEE1 (setting [1]) is under 4.96; at Human PKMYT1 (setting [3]), over 7.30. In addition, the “PKMYT1 vs. WEE1 selectivity” value on WEE1 (setting [2]) is listed as “X (100-<1000 fold)”.
The matching figures for `Cc1ccc(O)c(C)c1NC(=O)c1cnc(Nc2cc(C)n(C)n2)s1` [BAA-122, 2-[(1,5-dimethylpyrazol-3-yl)amino]-N-(3-hydroxy-2,6-dimethyl-phenyl)thiazole-5-carboxamide]: 4.96 to 6.00, 6.00 to 7.30 and “X (100-<1000 fold)”.
For `Cc1ccc(O)c(C)c1NC(=O)c1cnc(Nc2c3cnccc3nn2C)s1` [BAA-248, N-(3-hydroxy-2,6-dimethylphenyl)-2-((2-methyl-2H-pyrazolo[4,3-c]pyridin-3-yl)amino)thiazole-5-carboxamide], the pIC50 at WEE1 (setting [1]) is 4.96 to 6.00; against Human PKMYT1 (setting [3]) it was over 7.30. The “PKMYT1 vs. WEE1 selectivity” value on WEE1 (setting [2]) is “X (100-<1000 fold)”.
The matching figures for `Cc1ccc(O)c(C)c1NC(=O)c1cnc(Nc2ccn(CC(=O)N[C@@H](C)CO)n2)s1` [BAA-165]: under 4.96, over 7.30 and “Y (1000-5000 fold)”.
Consider `Cc1ccc(O)c(C)c1NC(=O)c1cnc(Nc2nncs2)s1` [BAA-028, N-(3-hydroxy-2,6-dimethyl-phenyl)-2-(1,3,4-thiadiazol-2-ylamino)thiazole-5-carboxamide], for which the pIC50 at WEE1 (setting [1]) was under 4.96; on Human PKMYT1 (setting [3]) it was over 7.30. At WEE1 (setting [2]), the “PKMYT1 vs. WEE1 selectivity” value is “X (100-<1000 fold)”.
The matching figures for `Cc1ccc(O)c(C)c1NC(=O)c1cnc(Nc2cc(C(C)(C)O)n(C)n2)s1` [BAA-256, N-(3-hydroxy-2,6-dimethylphenyl)-2-((5-(2-hydroxypropan-2-yl)-1-methyl-1H-pyrazol-3-yl)amino)thiazole-5-carboxamide]: 4.96 to 6.00, over 7.30 and “W (10-<100 fold)”.
`Cc1ccc(O)c(C)c1NC(=O)c1cnc(NCC2CCN(C(=O)OC(C)(C)C)CC2)s1` [BAA-066]: the pIC50 against WEE1 (setting [1]) was under 4.96; on Human PKMYT1 (setting [3]), 6.00 to 7.30. Further, at WEE1 (setting [2]), the “PKMYT1 vs. WEE1 selectivity” value is “>X (100-<1000 fold)”.
Consider `O=C(Nc1c(Cl)ccc(O)c1F)c1cnc(Nc2ccn(CC(=O)N3CCCC3)n2)s1` [BAA-481, N-(6-Chloro-2-fluoro-3-hydroxy-phenyl)-2-[[1-(2-oxo-2-pyrrolidin-1-yl-ethyl)pyrazol-3-yl]amino]thiazole-5-carboxamide], for which the pIC50 is under 4.96 against WEE1 (WEE1 15 nM, banded values) and over 7.30 at Human PKMYT1 (setting [4]). For the same compound, the “PKMYT1 vs. WEE1 selectivity” value at WEE1 (banded) is on record as “Y (1000-5000 fold)”.
In the case of `Cc1ccc(O)c(C)c1NC(=O)c1cnc(Nc2ccn(C3CCCCC3)n2)s1` [BAA-015, 2-[(1-cyclohexylpyrazol-3-yl)amino]-N-(3-hydroxy-2,6-dimethyl-phenyl)thiazole-5-carboxamide], the figures for the pIC50 on WEE1 (setting [1]) and against Human PKMYT1 (setting [3]) were 4.96 to 6.00 and over 7.30, respectively. For the same compound, the “PKMYT1 vs. WEE1 selectivity” value on WEE1 (setting [2]) is recorded as “X (100-<1000 fold)”.
In the case of `Cc1ccc(O)c(C)c1NC(=O)c1cnc(Nc2ccc(F)c(C#N)c2)s1` [BAA-282, 2-((3-cyano-4-fluorophenyl)amino)-N-(3-hydroxy-2,6-dimethylphenyl)thiazole-5-carboxamide], the figures for the pIC50 at WEE1 (setting [1]) and against Human PKMYT1 (setting [3]) were under 4.96 and 4.96 to 6.00, respectively. For the same compound, the “PKMYT1 vs. WEE1 selectivity” value at WEE1 (setting [2]) is reported as “W (10-<100 fold)”.
The matching figures for `Cc1ccc(O)c(C)c1NC(=O)c1cnc(Nc2ccc3cc(F)ccc3n2)s1` [BAA-288, 2-((6-fluoroquinolin-2-yl)amino)-N-(3-hydroxy-2,6-dimethylphenyl)thiazole-5-carboxamide]: under 4.96, 6.00 to 7.30 and “X (100-<1000 fold)”.
For `CCNC(=O)Cn1ccc(Nc2ncc(C(=O)Nc3c(C)ccc(O)c3C)s2)n1` [BAA-188], the negative-log IC50 (pIC50) against WEE1 (setting [1]) was under 4.96; at Human PKMYT1 (setting [3]), over 7.30. Besides, the “PKMYT1 vs. WEE1 selectivity” value on WEE1 (setting [2]) was “Y (1000-5000 fold)”.
With `Cc1ccc(O)c(C)c1NC(=O)c1cnc(Nc2ccc(Nc3ccc(F)cc3)cn2)s1` [BAA-310, 2-((5-((4-fluorophenyl)amino)pyridin-2-yl)amino)-N-(3-hydroxy-2,6-dimethylphenyl)thiazole-5-carboxamide], the values for the pIC50 against WEE1 (setting [1]) and against Human PKMYT1 (setting [3]) were under 4.96 and 6.00 to 7.30, respectively. The “PKMYT1 vs. WEE1 selectivity” value at WEE1 (setting [2]) is given as “X (100-<1000 fold)”.
`Cc1ccc(O)c(C)c1NC(=O)c1cnc(Nc2ccnn2CCN)s1` [BAA-260, 2-((1-(2-aminoethyl)-1H-pyrazol-5-yl)amino)-N-(3-hydroxy-2,6-dimethylphenyl)thiazole-5-carboxamide]: the results for the pIC50 on WEE1 (setting [1]) and against Human PKMYT1 (setting [3]) were under 4.96 and 6.00 to 7.30, respectively. The “PKMYT1 vs. WEE1 selectivity” value on WEE1 (setting [2]) is on record as “W (10-<100 fold)”.
For `CCOC(=O)c1cc(Nc2ncc(C(=O)Nc3c(C)ccc(O)c3C)s2)nn1C` [BAA-024] the same measures were 4.96 to 6.00, over 7.30 and “X (100-<1000 fold)”.
For `CCNc1ncc(C(=O)Nc2c(C)ccc(O)c2C)s1` [BAA-060, 2-(ethylamino)-N-(3-hydroxy-2,6-dimethyl-phenyl)thiazole-5-carboxamide] the same measures were under 4.96, 6.00 to 7.30 and “>X (100-<1000 fold)”.
As to `CCc1c(O)ccc(C)c1NC(=O)c1cnc(Nc2ccn(CC(=O)N3CCCC3)n2)s1` [BAA-475, N-(2-ethyl-3-hydroxy-6-methylphenyl)-2-((1-(2-oxo-2-(pyrrolidin-1-yl)ethyl)-1H-pyrazol-3-yl)amino) thiazole-5-carboxamide], the pIC50 is under 4.96 on WEE1 (WEE1 15 nM, banded values) and over 7.30 at Human PKMYT1 (setting [4]). The “PKMYT1 vs. WEE1 selectivity” value at WEE1 (banded) is listed as “Y (1000-5000 fold)”.
As to `CCOC(=O)CCCn1ccc(Nc2ncc(C(=O)Nc3c(C)ccc(O)c3C)s2)n1` [BAA-022], the figures for the pIC50 at WEE1 (setting [1]) and against Human PKMYT1 (setting [3]) were 4.96 to 6.00 and 6.00 to 7.30, respectively. Further, the “PKMYT1 vs. WEE1 selectivity” value at WEE1 (setting [2]) is listed as “W (10-<100 fold)”.
For the compound `Cc1ccc(O)c(C)c1NC(=O)c1cnc(Nc2ccn(CCCC(=O)O)n2)s1` [BAA-058, 4-[3-[[5-[(3-Hydroxy-2,6-dimethyl-phenyl)carbamoyl]thiazol-2-yl]amino]pyrazol-1-yl]butanoic acid], the figures for the negative logarithm of the IC50 (pIC50) against WEE1 (setting [1]) and against Human PKMYT1 (setting [3]) were under 4.96 and over 7.30, respectively. Besides, the “PKMYT1 vs. WEE1 selectivity” value at WEE1 (setting [2]) was “X (100-<1000 fold)”.
For the compound `Cc1ccc(O)c(C)c1NC(=O)c1cnc(Nc2cnn(C)c2C)s1` [BAA-520, 2-((1,5-dimethyl-1H-pyrazol-4-yl)amino)-N-(3-hydroxy-2,6-dimethylphenyl)thiazole-5-carboxamide], the negative-log IC50 (pIC50) was under 4.96 against WEE1 (WEE1 15 nM, banded values) and 6.00 to 7.30 against Human PKMYT1 (setting [4]). Moreover, on WEE1 (banded), the “PKMYT1 vs. WEE1 selectivity” value is listed as “X (100-<1000 fold)”.
As for `Cc1ccc(O)c(C)c1NC(=O)c1cnc(Nc2nc(C)c(Br)c(C)n2)s1` [BAA-295, 2-((5-bromo-4,6-dimethylpyrimidin-2-yl)amino)-N-(3-hydroxy-2,6-dimethylphenyl)thiazole-5-carboxamide], the negative logarithm of the IC50 (pIC50) on WEE1 (setting [1]) was under 4.96; against Human PKMYT1 (setting [3]) it was 6.00 to 7.30. For the same compound, the “PKMYT1 vs. WEE1 selectivity” value on WEE1 (setting [2]) is reported as “Y (1000-5000 fold)”.

By pIC50 is commonly meant the negative decadic logarithm of the IC50, by convention in mol/L.
